The values that follow come from US10093713B2, “GIP-GLP-1 dual agonist compounds and methods” (priority 2013, dated 2018).

pEC50: −log10 of the molar value. Like-named read-outs stand apart in the source and are kept apart here. *1 amine or outer side, *2 acyl side, *3 side chain or, on linkers, in order; H or OH if unused. Where a SMILES comes first, the peptide text is derived from it. Side-chain parts run from the residue outwards. [ ]: non-standard residue; d: D form. The star is where a group is joined. C20 diacid = O=C(O)CCCCCCCCCCCCCCCCCCC(=O)*; C18 diacid = O=C(O)CCCCCCCCCCCCCCCCC(=O)*; γGlu = O=C(O)[C@H](CCC(=O)[*:2])N[*:1]; AEEA = NCCOCCOCC(=O)O; Aib = CC(C)(N)C(=O)O

By pEC50 is commonly meant the EC50 on a negative log10 scale, so that one unit is a factor of ten. In general, half-life refers to the time needed for the level to fall by half in the phase considered. As usually defined, the bioavailability is the share of a dose that reaches the circulation, judged against a reference dose that is usually intravenous. Read a low bioavailability as little systemic uptake. By Tmax is commonly meant the time at which the peak concentration occurs.

One series deals with T1, human GLP-1 R (Homo sapiens, UniProt P43220).
T1 construct: expressed in transfected cells
T1 sequence (P43220 24-463): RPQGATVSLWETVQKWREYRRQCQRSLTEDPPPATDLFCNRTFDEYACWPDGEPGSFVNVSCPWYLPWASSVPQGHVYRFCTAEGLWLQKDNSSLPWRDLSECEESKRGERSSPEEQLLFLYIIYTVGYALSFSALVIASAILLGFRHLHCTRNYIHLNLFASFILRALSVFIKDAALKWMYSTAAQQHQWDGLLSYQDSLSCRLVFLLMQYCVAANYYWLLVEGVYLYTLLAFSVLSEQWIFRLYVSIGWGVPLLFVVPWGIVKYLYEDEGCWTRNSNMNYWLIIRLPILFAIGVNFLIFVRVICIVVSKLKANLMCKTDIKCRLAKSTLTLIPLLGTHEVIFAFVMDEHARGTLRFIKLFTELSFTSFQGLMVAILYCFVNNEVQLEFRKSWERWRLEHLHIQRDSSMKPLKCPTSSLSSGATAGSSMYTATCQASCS
The series is described as follows: Human GLP-1 receptor (GLP-1 R) activity assay, cAMP induction (AlphaScreen) in HEK293 cells. Format: cell-based. The procedure, abridged:
(§1)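 Stable HEK293 clones expressing human GIP R or GLP-1 R, seeded 1 day before; cells washed in Tyrode's buffer (10 mM HEPES, pH 7.4), stimulated, then lysed. cAMP measured by AlphaScreen bead competition (1 h, room temperature, dark). EC50 = concentration giving half-maximal cAMP elevation, from curves of absolute cAMP (nM) vs log concentration.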

The nature of series [1]: Pharmacokinetics of selected compounds in mice. Format: in vivo, C57BL/6J mice. As to conditions: male, C57BL/6J, mouse, plasma; for bioavailability: subcutaneous, AUCinf (s.c.)/AUCinf (i.v.)x100, values marked * capped to 100%. On the procedure:
Pharmacokinetics of Selected Compounds in Mice
C57BL/6J mice (males with a body weight of approximately 25 g) were given either a single subcutaneous (s.c.) bolus or a single intravenous (i.v.) bolus of each peptide to be tested.
Following s.c. administration of the selected compounds (50, 100 or 200 nmol/kg), blood samples were drawn at 8 (eight) timepoints up to 72 hours post-dose. Following i.v. administration of the selected compounds (50, 100 or 200 nmol/kg), blood samples were drawn at 8 (eight) timepoints up to 48 hours post-dose. Blood samples were drawn by sublingual bleeding. The dosing vehicle was a phosphate buffer containing mannitol (pH 7.5).
At each sampling time point, samples from two mice were drawn, i.e. 16 mice were included for each compound and each administration route. The mice were euthanized immediately after blood sampling by cervical dislocation. Plasma samples were analyzed after solid phase extraction (SPE) or protein precipitation followed by liquid chromatography mass spectrometry (LC-MS/MS). Mean plasma concentrations were used for calculation of the pharmacokinetic parameters using the non-compartmental approach in Phoenix WinNonlin 6.3. Plasma terminal elimination half-life (T½) was determined as […] where λz is the magnitude of the slope of the log linear regression of the log concentration versus time profile during the terminal phase. Bioavailability was determined as AUCinf (s.c.)/AUCinf (i.v.)×100, where AUCinf is the area under the plasma concentration−time curve extrapolated to infinity (AUCinf=AUClast+Clast/λz, where Clast is the last observed plasma concentration). Tmax is the post-dose time where the maximal plasma concentration was observed.

A further series concerns the target T2, human GIP R (Homo sapiens, UniProt P48546).
T2 construct: expressed in transfected cells
T2 sequence (P48546 22-466): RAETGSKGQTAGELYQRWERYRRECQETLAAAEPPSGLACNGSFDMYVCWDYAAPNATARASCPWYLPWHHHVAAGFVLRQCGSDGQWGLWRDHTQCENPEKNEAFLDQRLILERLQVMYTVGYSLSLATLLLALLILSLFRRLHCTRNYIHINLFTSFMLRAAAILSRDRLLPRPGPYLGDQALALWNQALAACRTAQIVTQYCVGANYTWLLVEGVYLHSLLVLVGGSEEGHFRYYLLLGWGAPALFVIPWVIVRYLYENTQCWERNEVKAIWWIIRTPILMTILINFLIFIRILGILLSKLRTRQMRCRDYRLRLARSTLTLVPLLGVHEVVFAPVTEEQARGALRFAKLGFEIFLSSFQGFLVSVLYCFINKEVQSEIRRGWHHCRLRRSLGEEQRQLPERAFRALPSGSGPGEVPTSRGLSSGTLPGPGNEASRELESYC
Briefly: Human GIP receptor (GIP R) activity assay, cAMP induction (AlphaScreen) in HEK293 cells. Format: cell-based. As to conditions: read-out: hGIP-R cAMP EC50 average value. The procedure, abridged: as §1
(Alpha assays give light when donor and acceptor beads are brought close together.)

Setting [2] is: Table 2, HEK293 cells expressing human GLP-1 R, read-out: hGLP1-R cAMP EC50 average value.
Setting [3] is: Table 2a, secondary assay study, read-out: hGLP1-R cAMP EC50 average value.
The mark [4] stands for this setting: Table 3, most comprehensive data, read-out: hGLP-1-R cAMP EC50 average value.
Where [5] appears, read: iv, single i.v. bolus, read-out: T½ terminal elimination half-life, i.v. (converted).
Setting [6] is: sc, single s.c. bolus, read-out: T½ terminal elimination half-life, s.c. (converted).
The mark [7] stands for this setting: Table 2, HEK293 cells expressing human GIP R.
Where [8] appears, read: Table 2a, secondary assay study.
Setting [9] is: Table 3, most comprehensive data.

For the molecule `CC[C@H](C)[C@H](NC(=O)[C@H](CO)NC(=O)[C@H](Cc1ccc(O)cc1)NC(=O)[C@H](CC(=O)O)NC(=O)[C@H](CO)NC(=O)[C@@H](NC(=O)[C@H](Cc1ccccc1)NC(=O)[C@@H](NC(=O)CNC(=O)[C@H](CCC(=O)O)NC(=O)C(C)(C)NC(=O)[C@@H](N)Cc1ccc(O)cc1)[C@@H](C)O)[C@@H](C)O)C(=O)N[C@@H](Cc1ccc(O)cc1)C(=O)N[C@@H](CC(C)C)C(=O)N[C@@H](CC(=O)O)C(=O)N[C@@H](CCCCN)C(=O)N[C@@H](CCCCNC(=O)COCCOCCNC(=O)COCCOCCNC(=O)CC[C@H](NC(=O)CCCCCCCCCCCCCCCCC(=O)O)C(=O)O)C(=O)N[C@@H](C)C(=O)N[C@@H](CCC(N)=O)C(=O)N[C@@H](CCCNC(=N)N)C(=O)N[C@@H](C)C(=O)N[C@@H](Cc1ccccc1)C(=O)N[C@H](C(=O)N[C@@H](CCC(=O)O)C(=O)N[C@@H](Cc1c[nH]c2ccccc12)C(=O)N[C@@H](CC(C)C)C(=O)N[C@@H](CC(C)C)C(=O)N[C@@H](C)C(=O)N[C@@H](CCC(N)=O)C(=O)NCC(=O)N1CCC[C@H]1C(=O)N[C@@H](CO)C(=O)N[C@@H](CO)C(=O)NCC(=O)N[C@@H](C)C(=O)N1CCC[C@H]1C(=O)N1CCC[C@H]1C(=O)N1CCC[C@H]1C(=O)N[C@@H](CO)C(N)=O)C(C)C` [Compound 1] (H-Y[Aib]EGTFTSDYSIYLDKK([AEEA-AEEA-γGlu-C18 diacid])AQRAFVEWLLAQGPSSGAPPPS-NH2), the pEC50 on human GLP-1 R (setting [2]) was 10.92; at human GLP-1 R (setting [3]), 10.82; on human GLP-1 R (setting [4]), 10.82; at human GIP R (setting [7]), 11.26; at human GIP R (setting [8]), 11.22; on human GIP R (setting [9]), 11.22. For the same molecule, the half-life is 10.8 h in series [1] (setting [5]) and 9.1 h in series [1] (setting [6]). In addition, in series [1], the bioavailability was found to be 90%. Further, in series [1] (sc, single s.c. bolus), the Tmax was 6 h.

`CC[C@H](C)[C@H](NC(=O)[C@H](CO)NC(=O)[C@H](Cc1ccc(O)cc1)NC(=O)[C@H](CC(=O)O)NC(=O)[C@H](CO)NC(=O)[C@@H](NC(=O)[C@H](Cc1ccccc1)NC(=O)[C@@H](NC(=O)CNC(=O)[C@H](CCC(=O)O)NC(=O)C(C)(C)NC(=O)[C@@H](N)Cc1ccc(O)cc1)[C@@H](C)O)[C@@H](C)O)C(=O)N[C@@H](Cc1ccc(O)cc1)C(=O)N[C@@H](CC(C)C)C(=O)N[C@@H](CC(=O)O)C(=O)N[C@@H](CCCCN)C(=O)N[C@@H](CCCCNC(=O)COCCOCCNC(=O)COCCOCCNC(=O)CC[C@H](NC(=O)CCCCCCCCCCCCCCCCCCC(=O)O)C(=O)O)C(=O)N[C@@H](C)C(=O)N[C@@H](CCC(N)=O)C(=O)N[C@@H](CCCNC(=N)N)C(=O)N[C@@H](C)C(=O)N[C@@H](Cc1ccccc1)C(=O)N[C@H](C(=O)N[C@@H](CCC(=O)O)C(=O)N[C@@H](Cc1c[nH]c2ccccc12)C(=O)N[C@@H](CC(C)C)C(=O)N[C@@H](CC(C)C)C(=O)N[C@@H](C)C(=O)N[C@@H](CCC(N)=O)C(=O)NCC(=O)N1CCC[C@H]1C(=O)N[C@@H](CO)C(=O)N[C@@H](CO)C(=O)NCC(=O)N[C@@H](C)C(=O)N1CCC[C@H]1C(=O)N1CCC[C@H]1C(=O)N1CCC[C@H]1C(=O)N[C@@H](CO)C(N)=O)C(C)C` [Compound 2] (H-Y[Aib]EGTFTSDYSIYLDKK([AEEA-AEEA-γGlu-C20 diacid])AQRAFVEWLLAQGPSSGAPPPS-NH2): the pEC50 at human GLP-1 R (setting [2]) was 11.08; on human GLP-1 R (setting [3]), 10.96; at human GLP-1 R (setting [4]), 10.96; at human GIP R (setting [7]) it was 11.31; on human GIP R (setting [8]), 11.10; at human GIP R (setting [9]), 11.10. Moreover, the values for the half-life in series [1] (setting [5]) and in series [1] (setting [6]) were 16.6 h and 16.5 h, respectively. In addition, the bioavailability in series [1] came to 83%. In addition, the Tmax in series [1] (sc, single s.c. bolus) was determined as 6 h.

Turning to `CC[C@H](C)[C@H](NC(=O)[C@H](CO)NC(=O)[C@H](Cc1ccc(O)cc1)NC(=O)[C@H](CC(=O)O)NC(=O)[C@H](CO)NC(=O)[C@@H](NC(=O)[C@H](Cc1ccccc1)NC(=O)[C@@H](NC(=O)CNC(=O)[C@H](CCC(=O)O)NC(=O)C(C)(C)NC(=O)[C@@H](N)Cc1ccc(O)cc1)[C@@H](C)O)[C@@H](C)O)C(=O)N[C@@H](Cc1ccc(O)cc1)C(=O)N[C@@H](CC(C)C)C(=O)N[C@@H](CC(=O)O)C(=O)N[C@@H](CCCCN)C(=O)N[C@@H](CCCCNC(=O)CC[C@H](NC(=O)CCCCCCCCCCCCCCCCC(=O)O)C(=O)O)C(=O)N[C@@H](C)C(=O)N[C@@H](CCC(N)=O)C(=O)N[C@@H](CCCNC(=N)N)C(=O)N[C@@H](C)C(=O)N[C@@H](Cc1ccccc1)C(=O)N[C@H](C(=O)N[C@@H](CCC(=O)O)C(=O)N[C@@H](Cc1c[nH]c2ccccc12)C(=O)N[C@@H](CC(C)C)C(=O)N[C@@H](CC(C)C)C(=O)N[C@@H](C)C(=O)N[C@@H](CCC(N)=O)C(=O)NCC(=O)N1CCC[C@H]1C(=O)N[C@@H](CO)C(=O)N[C@@H](CO)C(=O)NCC(=O)N[C@@H](C)C(=O)N1CCC[C@H]1C(=O)N1CCC[C@H]1C(=O)N1CCC[C@H]1C(=O)N[C@@H](CO)C(N)=O)C(C)C` [Compound 3] (H-Y[Aib]EGTFTSDYSIYLDKK([γGlu-C18 diacid])AQRAFVEWLLAQGPSSGAPPPS-NH2), the pEC50 was 10.96 at human GLP-1 R (setting [2]); 10.96 on human GLP-1 R (setting [3]); 11.07 on human GIP R (setting [7]); 11.05 on human GIP R (setting [8]); 11.05 on human GIP R (setting [9]). For the same molecule, in series [1] (setting [5]), the half-life is 9.1 h. Also, the bioavailability in series [1] was 89%. The Tmax in series [1] (sc, single s.c. bolus) worked out at 8 h.

On to `CC[C@H](C)[C@H](NC(=O)[C@H](CO)NC(=O)[C@H](Cc1ccc(O)cc1)NC(=O)[C@H](CC(=O)O)NC(=O)[C@H](CO)NC(=O)[C@@H](NC(=O)[C@H](Cc1ccccc1)NC(=O)[C@@H](NC(=O)CNC(=O)[C@H](CCC(=O)O)NC(=O)C(C)(C)NC(=O)[C@@H](N)Cc1ccc(O)cc1)[C@@H](C)O)[C@@H](C)O)C(=O)N[C@@H](C)C(=O)N[C@@H](CC(C)C)C(=O)N[C@@H](CC(=O)O)C(=O)N[C@@H](CCCCN)C(=O)N[C@@H](CCCCNC(=O)COCCOCCNC(=O)COCCOCCNC(=O)CC[C@H](NC(=O)CCCCCCCCCCCCCCCCCCC(=O)O)C(=O)O)C(=O)N[C@@H](C)C(=O)N[C@@H](CCC(N)=O)C(=O)N[C@@H](CCCNC(=N)N)C(=O)N[C@@H](C)C(=O)N[C@@H](Cc1ccccc1)C(=O)N[C@H](C(=O)N[C@@H](CCC(=O)O)C(=O)N[C@@H](Cc1c[nH]c2ccccc12)C(=O)N[C@@H](CC(C)C)C(=O)N[C@@H](CC(C)C)C(=O)N[C@@H](C)C(=O)N[C@@H](CCC(=O)O)C(=O)N1CCC[C@H]1C(=O)N[C@@H](CO)C(=O)N[C@@H](CO)C(=O)NCC(=O)N[C@@H](C)C(=O)N1CCC[C@H]1C(=O)N1CCC[C@H]1C(=O)N1CCC[C@H]1C(=O)N[C@@H](CO)C(N)=O)C(C)C` [Compound 56] (H-Y[Aib]EGTFTSDYSIALDKK([AEEA-AEEA-γGlu-C20 diacid])AQRAFVEWLLAEPSSGAPPPS-NH2), for which the pEC50 is 10.48 on human GLP-1 R (setting [4]) and 10.60 on human GIP R (setting [9]).
